Conditions: DPS 1 mM, ambient temperature
Method: The oxidation performance of the oxidizer or oxidizer based formulations was determined by fading of the crystal violet dye solution color. The fading of the color was monitored by measuring the UV absorbance of the dye solution at 589 nm, before and after addition of oxidizer or oxidizer based formulation. The change in absorbance or fading of color of the dye solution, corresponds to the oxidation activity of the oxidizer. The greater the change in absorbance, more reactive is the oxidizer composition.
The oxidation activity was determined by measuring the destruction of crystal violet dye color at a wavelength of 589 nm by these formulations.
Crystal Violet Dye solution: Prepare crystal violet dye solution by dissolving 5 mg of crystal violet dye in 1000 mls of deionized water. Dilute the solution accordingly to get a sharp peak at 589 nm.
Procedure: • 1. […] Into 1500 mls beaker add 1000 mls of crystal violet dye solution. • 3. Using Hach spectrophotometer measure initial absorbance of the dye solution at 589 nm. • 4. […] Measure the absorbance at 589 nm after 1 and 2 hours reaction time. • 6. Calculate the percent decrease in crystal violet dye absorbance at 589 nm using the formula: [formula] Where Absi=Absorbance of crystal violet dye solution at the start of the experiment […]

SMILES: O.O.O.O.O.O=S(=O)([O-])[O-].[Cu+2] [copper sulfate, copper sulfate pentahydrate]
- effect on the oxidation performance of sodium dipersulfate, in words: increased

SMILES: O.O.O.O.O.O.O.O=S(=O)([O-])[O-].[Zn+2] [zinc sulfate, zinc sulfate heptahydrate]
- effect on the oxidation performance of sodium dipersulfate, in words: no effect

Source: patent publication US20050147691A1, “Catalytic oxidation of peroxy salts” (priority 2002, published 2005)
